One test concerns SUD4. The test can be described thus: Antiproliferative activity against human SU-DHL4 cells assessed as growth inhibition at 6.2 uM after 5 days by Celltiter-Glo assay. It counts as functional, cell-based.
Test [1] deals with B-cell lymphoma 6 protein (Homo sapiens) (UniProt P41182). The test can be described thus: Binding affinity to recombinant human BCL6 (48 to 66 residues) assessed as protein compound adduct formation via Tyr58 residue after 2 hrs by LC-MS/MS analysis.
Test [2] shares this target. The test can be described thus: Covalent inhibition of human wild type BCL6 expressed in HEK293T cells transfected with eGFP assessed as rescue of BI-3802-induced BCL6 degradation at 5 uM incubated for 30 hrs followed by […] addition and measured after 5 hrs by flow cytometry based mCherry reporter gene analysis. It counts as cell-based. The conditions noted are these: HEK-293T.

Active and inactive are the calls of the source. The rule behind the calls is not given here.

Consider `CNC(=O)COc1cc2cc(Nc3nc(NCc4cccc(S(C)(=O)=O)c4)ncc3Cl)cc(OC)c2n(C)c1=O`, for which the result with SUD4 was inactive.

As for `CNC(=O)COc1cc2cc(Nc3nc(NCc4cccc(S(=O)(=O)F)c4)ncc3Cl)cc(OC)c2n(C)c1=O`, the outcome (in the test on SUD4; in test [1]; in test [2]) was Active.

With `O=C1Cc2cc(Nc3nc(NCc4cccc(S(=O)(=O)F)c4)ncc3Cl)ccc2N1`, the result in test [1] and in test [2] was Active.

(Values after ChEMBL document CHEMBL4616707, “Rationally Designed Covalent BCL6 Inhibitor That Targets a Tyrosine Residue in the Homodimer Interface” (ACS Med Chem Lett, 2020).)
